# Measured values from ChEMBL document CHEMBL4715698, “Design and synthesis of novel selective anaplastic lymphoma kinase inhibitors” (Bioorg Med Chem Lett, 2016).
# Columns and labels:
# [1] = system: BaF3; assay: Antiproliferative activity against wild type mouse BaF3 cells assessed as reduction in cell growth incubated for 2 to 3 days by Bright-Glo luciferase assay
# [2] = molecular target: ALK tyrosine kinase receptor (Homo sapiens, UniProt Q9UM73); assay: Inhibition of ALK (unknown origin)
# [3] = Metabolic stability in mouse liver microsomes assessed as intrinsic clearance; type: ADME, Microsome; settings: read-out: CLH
# [4] = Metabolic stability in rat liver microsomes assessed as intrinsic clearance; type: ADME, Microsome; settings: read-out: CLH
# [5] = Metabolic stability in human liver microsomes assessed as intrinsic clearance; type: ADME, Microsome; settings: read-out: CLH
# [6] = molecular target: Cytochrome P450 3A4 (Homo sapiens, UniProt P08684); assay: Inhibition of CYP3A4 (unknown origin) using midazolam as substrate; type: ADME
# Chain of Cytochrome P450 3A4 (P08684 whole entry): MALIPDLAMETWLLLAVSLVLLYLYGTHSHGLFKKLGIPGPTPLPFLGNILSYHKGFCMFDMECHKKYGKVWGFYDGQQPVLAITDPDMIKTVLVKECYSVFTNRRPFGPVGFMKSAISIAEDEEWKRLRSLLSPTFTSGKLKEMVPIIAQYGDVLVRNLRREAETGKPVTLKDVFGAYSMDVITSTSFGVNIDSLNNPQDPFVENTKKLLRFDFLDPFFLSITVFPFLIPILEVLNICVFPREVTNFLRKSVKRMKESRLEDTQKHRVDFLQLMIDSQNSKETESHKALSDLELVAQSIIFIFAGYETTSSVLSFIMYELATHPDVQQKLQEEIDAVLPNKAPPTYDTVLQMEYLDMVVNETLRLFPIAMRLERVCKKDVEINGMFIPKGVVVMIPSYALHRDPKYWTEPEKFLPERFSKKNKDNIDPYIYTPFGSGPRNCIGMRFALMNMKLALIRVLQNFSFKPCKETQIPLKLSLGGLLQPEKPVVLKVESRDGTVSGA
# [7] = Solubility in DMSO at pH 6.8 by high-throughput solubility assay; type: physicochemical
# [8] = Permeability of compound by PAMPA assay; type: ADME
# [9] = molecular target: Voltage-gated inwardly rectifying potassium channel KCNH2 (Homo sapiens, UniProt Q12809); assay: Inhibition of human ERG by dofetilide binding assay
# Chain of Voltage-gated inwardly rectifying potassium channel KCNH2 (Q12809 whole entry): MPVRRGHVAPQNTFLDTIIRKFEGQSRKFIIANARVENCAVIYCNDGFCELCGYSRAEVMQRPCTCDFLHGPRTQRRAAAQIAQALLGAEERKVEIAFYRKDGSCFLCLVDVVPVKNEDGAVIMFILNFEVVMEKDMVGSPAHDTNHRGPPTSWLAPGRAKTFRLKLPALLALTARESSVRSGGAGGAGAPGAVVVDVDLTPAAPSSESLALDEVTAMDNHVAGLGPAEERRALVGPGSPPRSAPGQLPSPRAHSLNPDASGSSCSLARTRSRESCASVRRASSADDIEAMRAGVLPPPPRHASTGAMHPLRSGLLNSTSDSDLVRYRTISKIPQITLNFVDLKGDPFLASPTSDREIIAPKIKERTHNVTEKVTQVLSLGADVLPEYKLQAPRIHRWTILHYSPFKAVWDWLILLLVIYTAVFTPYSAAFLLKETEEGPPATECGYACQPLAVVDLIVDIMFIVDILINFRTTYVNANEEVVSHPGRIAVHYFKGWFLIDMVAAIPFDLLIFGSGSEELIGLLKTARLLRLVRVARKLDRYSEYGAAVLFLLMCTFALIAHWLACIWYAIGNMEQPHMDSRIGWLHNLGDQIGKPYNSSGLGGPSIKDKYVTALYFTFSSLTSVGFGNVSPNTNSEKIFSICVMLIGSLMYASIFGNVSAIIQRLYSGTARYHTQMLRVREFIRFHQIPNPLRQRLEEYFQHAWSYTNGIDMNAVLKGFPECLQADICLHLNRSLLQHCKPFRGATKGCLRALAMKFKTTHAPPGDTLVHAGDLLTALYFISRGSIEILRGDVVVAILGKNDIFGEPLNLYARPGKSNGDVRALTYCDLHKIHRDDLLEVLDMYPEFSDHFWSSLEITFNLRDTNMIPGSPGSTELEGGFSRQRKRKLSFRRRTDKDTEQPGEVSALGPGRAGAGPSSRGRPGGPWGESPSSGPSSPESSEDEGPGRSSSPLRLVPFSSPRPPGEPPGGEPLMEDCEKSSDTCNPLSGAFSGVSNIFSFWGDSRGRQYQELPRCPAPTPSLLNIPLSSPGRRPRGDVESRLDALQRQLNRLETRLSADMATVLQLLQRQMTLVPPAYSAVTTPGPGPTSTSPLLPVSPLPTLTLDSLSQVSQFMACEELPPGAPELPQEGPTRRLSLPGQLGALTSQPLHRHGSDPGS
# [10] = Clearance in mouse at 5 mg/kg, iv; type: ADME, organism-based; settings: in vivo
# [11] = Volume of distribution at steady state in mouse at 5 mg/kg, iv; type: ADME, organism-based; settings: in vivo, read-out: Vdss
# [12] = Cmax in mouse at 20 mg/kg, po; type: ADME, organism-based; design: route oral, dose 20 mg/kg; settings: in vivo
# [13] = AUC in mouse at 20 mg/kg, po; type: ADME, organism-based; design: dose 20 mg/kg; settings: in vivo
# [14] = Oral bioavailability in mouse at 20 mg/kg; type: ADME, organism-based; settings: in vivo
# [15] = Clearance in rat at 3 mg/kg, iv; type: ADME, organism-based; settings: in vivo
# [16] = Volume of distribution at steady state in rat at 3 mg/kg, iv; type: ADME, organism-based; settings: in vivo, read-out: Vdss
# [17] = Cmax in rat at 10 mg/kg, po; type: ADME, organism-based; design: route oral, dose 10 mg/kg; settings: in vivo
# [18] = AUC in rat at 10 mg/kg, po; type: ADME, organism-based; design: dose 10 mg/kg; settings: in vivo
# [19] = Oral bioavailability in rat at 10 mg/kg; type: ADME, organism-based; settings: in vivo
# [20] = molecular target: EML4-ALK (Homo sapiens, UniProt Q9UM73); assay: Inhibition EML4-ALK (unknown origin); type: protein assay
# [21] = molecular target: NPM/ALK (Nucleophosmin/ALK tyrosine kinase receptor) (Homo sapiens, UniProt Q9UM73); assay: Inhibition NMP-ALK (unknown origin); type: protein assay
# [22] = molecular target: Tyrosine-protein kinase BTK (Homo sapiens, UniProt Q06187); assay: Inhibition of BTK (unknown origin)
# [23] = molecular target: Tyrosine-protein kinase ABL1 (Homo sapiens, UniProt P00519); assay: Inhibition of ABL (unknown origin)
# [24] = molecular target: RAC-alpha serine/threonine-protein kinase (Homo sapiens, UniProt P31749); assay: Inhibition of AKT (unknown origin)
# Chain of RAC-alpha serine/threonine-protein kinase (P31749 whole entry): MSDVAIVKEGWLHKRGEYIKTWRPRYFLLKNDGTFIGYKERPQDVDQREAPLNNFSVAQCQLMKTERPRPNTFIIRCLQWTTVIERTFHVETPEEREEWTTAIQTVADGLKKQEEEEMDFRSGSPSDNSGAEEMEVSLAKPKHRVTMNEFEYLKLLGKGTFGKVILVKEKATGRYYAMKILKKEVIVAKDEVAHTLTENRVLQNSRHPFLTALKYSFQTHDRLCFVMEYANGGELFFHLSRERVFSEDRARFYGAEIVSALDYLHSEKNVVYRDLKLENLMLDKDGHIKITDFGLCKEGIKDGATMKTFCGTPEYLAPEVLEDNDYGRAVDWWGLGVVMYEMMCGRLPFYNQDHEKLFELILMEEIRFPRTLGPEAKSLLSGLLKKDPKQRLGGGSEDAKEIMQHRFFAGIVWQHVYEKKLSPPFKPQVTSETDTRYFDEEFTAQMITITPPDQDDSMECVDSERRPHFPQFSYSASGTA
# [25] = Inhibition of Aurora (unknown origin); design: species or system Homo sapiens
# [26] = molecular target: Cyclin-dependent kinase 2 (Homo sapiens, UniProt P24941); assay: Inhibition of CDK2 (unknown origin)
# [27] = molecular target: Glycogen synthase kinase-3 beta (Homo sapiens, UniProt P49841); assay: Inhibition of GSK3beta (unknown origin)
# [28] = molecular target: Tyrosine-protein kinase JAK1 (Homo sapiens, UniProt P23458); assay: Inhibition of JAK1 (unknown origin)
# [29] = molecular target: Tyrosine-protein kinase JAK2 (Homo sapiens, UniProt O60674); assay: Inhibition of JAK2 (unknown origin)
# [30] = molecular target: Tyrosine-protein kinase JAK3 (Homo sapiens, UniProt P52333); assay: Inhibition of JAK3 (unknown origin)
# [31] = molecular target: Mitogen-activated protein kinase 1 (Homo sapiens, UniProt P28482); assay: Inhibition of MAPK1 (unknown origin)
# [32] = molecular target: Serine/threonine-protein kinase PLK1 (Homo sapiens, UniProt P53350); assay: Inhibition of PLK1 (unknown origin)
# [33] = molecular target: Non-receptor tyrosine-protein kinase TYK2 (Homo sapiens, UniProt P29597); assay: Inhibition of TYK2 (unknown origin)
# [34] = molecular target: Ephrin type-A receptor 4 (Homo sapiens, UniProt P54764); assay: Inhibition of EphA4 (unknown origin)
# [35] = molecular target: Ephrin type-B receptor 4 (Homo sapiens, UniProt P54760); assay: Inhibition of EphB4 (unknown origin)
# [36] = molecular target: Fibroblast growth factor receptor 4 (Homo sapiens, UniProt P22455); assay: Inhibition of FGFR4 (unknown origin)
# [37] = molecular target: Fibroblast growth factor receptor 3 (Homo sapiens, UniProt P22607); assay: Inhibition of FGFR3 (unknown origin)
# [38] = molecular target: Epidermal growth factor receptor (Homo sapiens, UniProt P00533); assay: Inhibition of HER1 (unknown origin)
# [39] = molecular target: Receptor tyrosine-protein kinase erbB-2 (Homo sapiens, UniProt P04626); assay: Inhibition of HER2 (unknown origin)
# [40] = molecular target: Insulin-like growth factor 1 receptor (Homo sapiens, UniProt P08069); assay: Inhibition of IGF-1R (unknown origin)
# Chain of Insulin-like growth factor 1 receptor (P08069 31-736 limits assumed): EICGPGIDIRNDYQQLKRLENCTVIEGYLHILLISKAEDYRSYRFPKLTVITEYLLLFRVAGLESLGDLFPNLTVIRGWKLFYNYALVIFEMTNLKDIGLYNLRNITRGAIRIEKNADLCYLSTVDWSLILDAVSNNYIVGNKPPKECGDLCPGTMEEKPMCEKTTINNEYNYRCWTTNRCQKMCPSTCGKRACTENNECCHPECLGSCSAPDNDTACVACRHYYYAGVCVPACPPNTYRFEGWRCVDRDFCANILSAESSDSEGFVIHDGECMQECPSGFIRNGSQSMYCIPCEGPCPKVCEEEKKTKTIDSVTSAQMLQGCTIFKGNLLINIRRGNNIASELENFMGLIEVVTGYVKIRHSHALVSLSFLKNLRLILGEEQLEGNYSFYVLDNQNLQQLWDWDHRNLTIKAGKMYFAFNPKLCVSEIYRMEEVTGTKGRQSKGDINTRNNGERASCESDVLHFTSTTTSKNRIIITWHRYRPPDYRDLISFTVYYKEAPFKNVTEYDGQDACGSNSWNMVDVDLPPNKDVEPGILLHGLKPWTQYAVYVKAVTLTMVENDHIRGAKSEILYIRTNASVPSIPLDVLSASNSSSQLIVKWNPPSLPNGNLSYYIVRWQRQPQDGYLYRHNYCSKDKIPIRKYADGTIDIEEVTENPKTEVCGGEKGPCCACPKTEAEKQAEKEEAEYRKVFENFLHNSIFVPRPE
# Chain of Insulin-like growth factor 1 receptor (P08069 741-1367 limits assumed): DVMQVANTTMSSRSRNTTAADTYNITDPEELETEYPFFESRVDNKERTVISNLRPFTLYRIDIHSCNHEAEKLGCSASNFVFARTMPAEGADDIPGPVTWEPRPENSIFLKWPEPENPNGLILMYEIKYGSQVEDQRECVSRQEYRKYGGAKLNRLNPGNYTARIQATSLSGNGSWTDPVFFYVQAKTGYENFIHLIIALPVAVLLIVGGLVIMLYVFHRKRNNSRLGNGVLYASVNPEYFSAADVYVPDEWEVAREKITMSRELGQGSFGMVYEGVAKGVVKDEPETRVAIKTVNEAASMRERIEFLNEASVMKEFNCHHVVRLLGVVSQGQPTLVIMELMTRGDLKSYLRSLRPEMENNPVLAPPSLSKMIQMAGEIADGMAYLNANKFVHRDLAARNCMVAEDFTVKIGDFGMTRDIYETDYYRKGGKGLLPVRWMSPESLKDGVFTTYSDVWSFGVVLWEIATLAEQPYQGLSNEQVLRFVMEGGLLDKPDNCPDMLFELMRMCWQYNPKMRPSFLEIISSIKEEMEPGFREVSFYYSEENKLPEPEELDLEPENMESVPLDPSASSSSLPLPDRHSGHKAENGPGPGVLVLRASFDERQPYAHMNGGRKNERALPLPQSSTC
# [41] = molecular target: Vascular endothelial growth factor receptor 2 (Homo sapiens, UniProt P35968); assay: Inhibition of KDR (unknown origin)
# [42] = molecular target: Tyrosine-protein kinase Lck (Homo sapiens, UniProt P06239); assay: Inhibition of LCK (unknown origin)
# [43] = molecular target: Platelet-derived growth factor receptor alpha (Homo sapiens, UniProt P16234); assay: Inhibition of PDGFRalpha (unknown origin)
# [44] = molecular target: Proto-oncogene tyrosine-protein kinase receptor Ret (Homo sapiens, UniProt P07949); assay: Inhibition of RET (unknown origin)
# [45] = molecular target: Tyrosine-protein kinase SYK (Homo sapiens, UniProt P43405); assay: Inhibition of SYK (unknown origin)
# [46] = molecular target: Mast/stem cell growth factor receptor Kit (Homo sapiens, UniProt P10721); assay: Inhibition of c-KIT (unknown origin)
# [47] = molecular target: Hepatocyte growth factor receptor (Homo sapiens, UniProt P08581); assay: Inhibition of MET (unknown origin)
# [48] = system: KARPAS-299; assay: Antitumor activity against human KARPAS-299 cells harboring NMP-ALK xenografted in SCID mouse assessed as tumor regression administered for 9 days and measured on day 9; type: functional; settings: time 9.0 day
# [49] = system: KARPAS-299; assay: Antitumor activity against human KARPAS-299 cells harboring NMP-ALK xenografted in SCID mouse assessed as tumor shrinkage by measuring T/C ratio at 25 mg/kg administered for 9 days and measured on day 9 (reference value: 100 %); type: functional; settings: time 9 day
# [50] = system: KARPAS-299; assay: Antitumor activity against human KARPAS-299 cells harboring NMP-ALK xenografted in SCID mouse assessed as tumor regression by measuring T/C ratio at 50 mg/kg administered for 9 days and measured on day 9 (reference value: 100 %); type: functional; settings: time 9 day
# [51] = Toxicity in SCID mouse xenografted with human KARPAS-299 cells harboring NMP-ALK assessed as reduction in body weight at 25 to 50 mg/kg administered for 9 days and measured on day 9; type: organism-based; settings: in vivo, 216 h, dose 25-50 mg/kg, time 9 day
# Chain of ALK tyrosine kinase receptor (Q9UM73 whole entry): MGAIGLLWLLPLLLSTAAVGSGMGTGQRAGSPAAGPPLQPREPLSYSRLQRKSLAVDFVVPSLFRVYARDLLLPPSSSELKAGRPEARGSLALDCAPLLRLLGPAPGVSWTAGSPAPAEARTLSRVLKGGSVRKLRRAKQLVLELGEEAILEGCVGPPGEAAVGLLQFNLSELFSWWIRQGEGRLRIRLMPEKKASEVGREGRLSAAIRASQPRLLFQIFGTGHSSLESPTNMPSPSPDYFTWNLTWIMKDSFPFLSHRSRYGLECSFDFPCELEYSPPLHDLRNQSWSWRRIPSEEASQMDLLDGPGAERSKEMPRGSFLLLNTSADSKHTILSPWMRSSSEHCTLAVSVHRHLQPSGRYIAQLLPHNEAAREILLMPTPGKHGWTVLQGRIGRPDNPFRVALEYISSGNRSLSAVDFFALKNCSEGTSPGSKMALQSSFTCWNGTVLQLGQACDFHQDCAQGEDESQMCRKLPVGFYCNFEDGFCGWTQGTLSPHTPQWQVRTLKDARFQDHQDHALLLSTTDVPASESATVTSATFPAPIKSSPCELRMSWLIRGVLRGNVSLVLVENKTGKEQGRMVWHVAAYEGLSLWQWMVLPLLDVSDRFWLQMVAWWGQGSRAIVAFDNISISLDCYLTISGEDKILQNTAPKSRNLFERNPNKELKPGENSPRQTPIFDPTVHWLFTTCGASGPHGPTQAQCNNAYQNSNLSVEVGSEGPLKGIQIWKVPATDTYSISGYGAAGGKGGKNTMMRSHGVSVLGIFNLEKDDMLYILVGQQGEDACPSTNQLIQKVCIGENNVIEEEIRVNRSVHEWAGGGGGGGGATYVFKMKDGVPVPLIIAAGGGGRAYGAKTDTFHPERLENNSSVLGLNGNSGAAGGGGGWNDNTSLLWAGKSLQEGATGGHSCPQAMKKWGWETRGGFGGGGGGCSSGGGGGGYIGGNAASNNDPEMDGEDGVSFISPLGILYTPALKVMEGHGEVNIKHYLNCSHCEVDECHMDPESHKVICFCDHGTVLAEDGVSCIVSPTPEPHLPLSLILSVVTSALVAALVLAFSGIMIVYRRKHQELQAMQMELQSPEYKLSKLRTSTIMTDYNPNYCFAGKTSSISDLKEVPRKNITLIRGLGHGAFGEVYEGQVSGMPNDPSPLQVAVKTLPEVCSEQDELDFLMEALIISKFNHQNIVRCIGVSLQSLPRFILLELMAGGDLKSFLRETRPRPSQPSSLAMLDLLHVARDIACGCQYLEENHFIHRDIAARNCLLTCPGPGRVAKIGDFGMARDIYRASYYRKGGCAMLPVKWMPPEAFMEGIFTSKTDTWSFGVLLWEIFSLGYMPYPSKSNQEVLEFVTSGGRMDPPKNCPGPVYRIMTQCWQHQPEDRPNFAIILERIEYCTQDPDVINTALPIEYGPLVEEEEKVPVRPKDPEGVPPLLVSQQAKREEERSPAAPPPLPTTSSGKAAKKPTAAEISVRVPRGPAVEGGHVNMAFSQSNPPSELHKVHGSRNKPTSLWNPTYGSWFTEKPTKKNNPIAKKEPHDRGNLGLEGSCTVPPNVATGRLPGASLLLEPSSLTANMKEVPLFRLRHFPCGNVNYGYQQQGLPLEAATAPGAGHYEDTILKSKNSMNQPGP
smiles,measurement,setting,value
Cc1cc2c(Nc3ccccc3S(=O)(=O)C(C)C)nc(Nc3cc(C)c(C4CCNCC4)cc3OC(C)C)nc2[nH]1,IC50,[1],5.41 µM
Cc1cc(Nc2nc(Nc3ccccc3S(=O)(=O)C(C)C)c3c(C)n[nH]c3n2)c(OC(C)C)cc1C1CCNCC1,IC50,[1],5.54 µM
Cc1cc(Nc2cc(Nc3ccccc3S(=O)(=O)C(C)C)c3cc[nH]c3n2)c(OC(C)C)cc1C1CCN(C)CC1,IC50,[1],4.91 µM
same,IC50,[2],> 25000 nM
Cc1cc(Nc2nc(Nc3ccccc3S(=O)(=O)C(C)C)c3cn[nH]c3n2)c(OC(C)C)cc1C1CCN(C)CC1,IC50,[1],5.12 µM
same,microsomal CLint,[3],37 µL/min/mg
same,microsomal CLint,[4],30 µL/min/mg
same,microsomal CLint,[5],32 µL/min/mg
same,IC50,[6],3.3 µM
same,solubility,[7],> 175 µM
same,log(permeability),[8],-4.1
same,IC50,[9],1000 nM
Cc1cc(Nc2nc(Nc3ccccc3S(=O)(=O)C(C)C)c3cc[nH]c3n2)c(OC(C)C)cc1C1CCNCC1,IC50,[1],2.22 µM
same,microsomal CLint,[3],15 µL/min/mg
same,microsomal CLint,[4],14 µL/min/mg
same,microsomal CLint,[5],22 µL/min/mg
same,IC50,[6],4.6 µM
same,solubility,[7],8.1 µM
same,log(permeability),[8],-5.7
same,clearance,[10],40 mL/min/kg
same,Vd,[11],7.3 L/kg
same,Cmax,[12],51 nM
same,AUC,[13],0.406 µM·h
same,bioavailability,[14],3%
Cc1cc(Nc2nc(Nc3ccccc3S(=O)(=O)C(C)C)c3cccnc3n2)c(OC(C)C)cc1C1CCNCC1,IC50,[1],7.23 µM
Cc1cc(Nc2nc(Nc3ccccc3S(=O)(=O)C(C)C)c3cc[nH]c3n2)c(OC(C)C)cc1C1CCN(C)CC1,IC50,[1],3.42 µM
same,microsomal CLint,[3],62 µL/min/mg
same,microsomal CLint,[4],34 µL/min/mg
same,microsomal CLint,[5],25 µL/min/mg
same,IC50,[6],4.5 µM
same,solubility,[7],10.4 µM
same,log(permeability),[8],< -3.3
same,IC50,[9],1700 nM
same,clearance,[10],58 mL/min/kg
same,Vd,[11],10.8 L/kg
same,Cmax,[12],425 nM
same,AUC,[13],5.98 µM·h
same,bioavailability,[14],59%
same,clearance,[15],15 mL/min/kg
same,Vd,[16],13.7 L/kg
same,Cmax,[17],291 nM
same,AUC,[18],7.19 µM·h
same,bioavailability,[19],35%
Cc1cc(Nc2nc(Nc3ccccc3S(=O)(=O)C(C)C)c3cn[nH]c3n2)c(OC(C)C)cc1C1CCNCC1,IC50,[1],6.22 µM
COc1ccc2nc(Nc3cc(C)c(C4CCN(C)CC4)cc3OC(C)C)nc(Nc3ccccc3S(=O)(=O)C(C)C)c2c1,IC50,[1],3.94 µM
Cc1cc2c(Nc3ccccc3S(=O)(=O)C(C)C)nc(Nc3cc(C)c(C4CCN(C)CC4)cc3OC(C)C)nc2[nH]1,IC50,[1],5.73 µM
Cc1cc(Nc2nc(Nc3ccccc3S(=O)(=O)C(C)C)c3ccccc3n2)c(OC(C)C)cc1C1CCN(C)CC1,IC50,[1],3.24 µM
Cc1cc(NC2=NC3NCCCC3C(Nc3ccccc3S(=O)(=O)C(C)C)=N2)c(OC(C)C)cc1C1CCNCC1 (configuration not stated),IC50,[1],2.03 µM
Cc1cc(Nc2nc(Nc3ccccc3S(=O)(=O)C(C)C)c3c(N)n[nH]c3n2)c(OC(C)C)cc1C1CCN(C)CC1,IC50,[1],4.5 µM
Cc1cc(Nc2nc(Nc3ccccc3S(=O)(=O)C(C)C)c3c(C)[nH]nc3n2)c(OC(C)C)cc1C1CCN(C)CC1,IC50,[20],10 nM
same,IC50,[21],30 nM
same,IC50,[1],2.51 µM
same,IC50,[2],4 nM
same,IC50,[22],9.4 µM
same,IC50,[23],1400 nM
same,IC50,[24],7.6 µM
same,IC50,[25],> 10 µM
same,IC50,[26],920 nM
same,IC50,[27],4.3 µM
same,IC50,[28],> 10 µM
same,IC50,[29],> 10 µM
same,IC50,[30],> 10 µM
same,IC50,[31],> 10 µM
same,IC50,[32],3.9 µM
same,IC50,[33],> 10 µM
same,IC50,[34],> 10 µM
same,IC50,[35],2900 nM
same,IC50,[36],> 10 µM
same,IC50,[37],> 10 µM
same,IC50,[38],960 nM
same,IC50,[39],7.8 µM
same,IC50,[40],470 nM
same,IC50,[41],7.4 µM
same,IC50,[42],4.3 µM
same,IC50,[43],9.7 µM
same,IC50,[44],3.6 µM
same,IC50,[45],> 10 µM
same,IC50,[46],> 10 µM
same,IC50,[47],8.1 µM
same,microsomal CLint,[3],13 µL/min/mg
same,microsomal CLint,[4],33 µL/min/mg
same,microsomal CLint,[5],19 µL/min/mg
same,IC50,[6],> 25 µM
same,solubility,[7],114 µM
same,log(permeability),[8],-4.9
same,IC50,[9],20800 nM
same,clearance,[10],71 mL/min/kg
same,Vd,[11],12.1 L/kg
same,Cmax,[12],429 nM
same,AUC,[13],4.9 µM·h
same,bioavailability,[14],58%
same,clearance,[15],32 mL/min/kg
same,Vd,[16],19.4 L/kg
same,Cmax,[17],151 nM
same,AUC,[18],3.07 µM·h
same,bioavailability,[19],35%
same,Activity,[48],Dose-dependent effect
same,T/C,[49],37%
same,T/C,[50],-54%
same,Activity,[51],Non-Toxic
Cc1cc(Nc2cc(Nc3ccccc3S(=O)(=O)C(C)C)nc3[nH]ccc23)c(OC(C)C)cc1C1CCN(C)CC1,IC50,[1],2.6 µM
Cc1cc(Nc2nc(Nc3ccccc3S(=O)(=O)C(C)C)c3[nH]nnc3n2)c(OC(C)C)cc1C1CCN(C)CC1,IC50,[1],> 10 µM
